Laboratory results reported in patent US9328083B2, “2-aminated methylene or 2-esterified methylene tanshinone derivatives, and preparation method and application thereof” (HANGZHOU BENSHENG PHARMACEUTICAL CO., LTD., priority 2011, dated 2016).
Converted amounts (≈) assume the structure as drawn.

Key:
[1] = test system: H9 (acute lymphoblastic leukemia, ALL); test: MTT growth inhibition of leukemia cells, 72 h; assay type: cell-based, human; settings: Homo sapiens, H9, 72 h; for IC50: read-out: IC50; for IC90: read-out: IC90
In short: (§1)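 Test compounds, dissolved in DMSO and further diluted with culture medium, go onto cells seeded the day before at 6000 per well in RPMI-1640/10% FBS. Plates stay 72 h in a 5% CO2 incubator at 37 °C, and cell viability is then assessed by the MTT method.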

[2] = test system: Jurkat (acute lymphoblastic leukemia, ALL); test: MTT growth inhibition of leukemia cells, 72 h; assay type: cell-based, human; settings: for IC50 / IC90: Homo sapiens, 72 h; for IC50: read-out: IC50; for IC90: read-out: IC90
In short: as §1

[3] = test system: K562/adr (drug-resistant, chronic myeloid leukemia, CML); test: MTT growth inhibition of leukemia cells, 72 h; assay type: cell-based, human; settings: Homo sapiens, K562/Adr; for IC50: read-out: IC50; for IC90: read-out: IC90
In short: as §1

[4] = test system: Kasumi-1 (acute myeloid leukemia M2 type, AML-M2); test: MTT growth inhibition of leukemia cells, 72 h; assay type: cell-based, human; settings: Homo sapiens, Kasumi-1, 72 h; for IC50: read-out: IC50; for IC90: read-out: IC90
In short: as §1

[5] = test system: NB4 (acute promyelocytic leukemia, AML); test: MTT growth inhibition of leukemia cells, 72 h; assay type: cell-based, human; settings: Homo sapiens, NB4, 72 h; for IC50: read-out: IC50; for IC90: read-out: IC90
In short: as §1

[6] = test system: RPMI8226 (multiple myeloma); test: MTT growth inhibition of multiple myeloma cells, 72 h; assay type: cell-based, human; settings: Homo sapiens, RPMI 8226, 72 h; for IC50: read-out: IC50; for IC90: read-out: IC90
In short: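 Viability read by MTT after 72 h at 37° C, 5% CO2: compounds from a 10 mg/mL DMSO stock were diluted in medium and added at several concentrations to 6000 RPMI8226 cells per well in 1640 medium plus 10% FBS.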

A549 (human lung cancer) = test: MTT growth inhibition of human solid tumor cells, 72 h; assay type: cell-based; settings: Homo sapiens, A549, 72 h; for IC50: read-out: IC50; for IC90: read-out: IC90
In short: (§2)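 Seeded cells (4000/well) pre-grown 24 h in high-glucose DMEM with 10% FBS at 37° C, 5% CO2, then exposed to graded derivative concentrations.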

[7] = test system: Becap37 (human breast cancer cell); test: as above; assay type: cell-based; settings: Homo sapiens, Becap-37, 72 h; for IC50: read-out: IC50; for IC90: read-out: IC90
In short: as §2

[8] = test system: CNE (nasopharyngeal carcinoma cell); test: as above; assay type: cell-based; settings: Homo sapiens; for IC50: read-out: IC50; for IC90: read-out: IC90
In short: as §2

[9] = test system: CaES-17 (esophageal cancer cell); test: as above; assay type: cell-based; settings: for IC50 / IC90: Homo sapiens, CaEs17, CaEs-17, 72 h; for IC50: read-out: IC50; for IC90: read-out: IC90
In short: as §2

[10] = test system: Hela (human cervical cancer cell); test: as above; assay type: cell-based; settings: Homo sapiens, HeLa, 72 h; for IC50: read-out: IC50; for IC90: read-out: IC90
In short: as §2

[11] = test system: Hep G2 (human liver cancer cell); test: as above; assay type: cell-based; settings: Homo sapiens, HepG2, Hep G2, 72 h; for IC50: read-out: IC50; for IC90: read-out: IC90
In short: as §2

[12] = test system: Hep-2 (laryngeal carcinoma); test: as above; assay type: cell-based; settings: Homo sapiens, HEp-2, 72 h; for IC50: read-out: IC50; for IC90: read-out: IC90
In short: as §2

MG63 (osteosarcoma) = test: as above; assay type: cell-based; settings: Homo sapiens, MG-63, 72 h; for IC50: read-out: IC50; for IC90: read-out: IC90
In short: as §2

[13] = test system: MGC 803 (human gastric cancer cell); test: as above; assay type: cell-based; settings: Homo sapiens, MGC-803, 72 h; for IC50: read-out: IC50; for IC90: read-out: IC90
In short: as §2

[14] = test system: PANC-1 (pancreatic cancer); test: as above; assay type: cell-based; settings: for IC50 / IC90: Homo sapiens, PANC-1, 72 h; for IC50: read-out: IC50; for IC90: read-out: IC90
In short: as §2

PC-3 (prostate cancer) = test: as above; assay type: cell-based; settings: Homo sapiens, PC-3, 72 h; for IC50: read-out: IC50; for IC90: read-out: IC90
In short: as §2

[15] = test system: RKO (human colon adenocarcinoma cell); test: as above; assay type: cell-based; settings: Homo sapiens; for IC50: read-out: IC50; for IC90: read-out: IC90
In short: as §2

[16] = test system: SK-OV-3 (ovarian cancer cell); test: as above; assay type: cell-based; settings: Homo sapiens, SK-OV-3, 72 h; for IC50: read-out: IC50; for IC90: read-out: IC90
In short: as §2

[17] = test system: U87 MG (malignant glioma cell); test: as above; assay type: cell-based; settings: Homo sapiens, U-87 MG, U87-MG, 72 h; for IC50: read-out: IC50; for IC90: read-out: IC90
In short: as §2

## Cc1c(CN(C)CCO)oc2c1C(=O)C(=O)c1c-2ccc2c(C)cccc12 [BS-TA-B17]
[1]
  IC50: 0.45 µg/mL (≈ 1.24 µM)
  IC90: 0.96 µg/mL (≈ 2.64 µM)
[2]
  IC50: 0.16 µg/mL (≈ 0.44 µM)
  IC90: 0.36 µg/mL (≈ 0.991 µM)
[2]; vs tanshinone I
  improvement of anti-Jurkat activity as compared with tanshinone I: more than 10 fold
[3]
  IC50: 0.31 µg/mL (≈ 0.853 µM)
  IC90: 0.86 µg/mL (≈ 2.37 µM)
[4]
  IC50: 0.12 µg/mL (≈ 0.33 µM)
  IC90: 0.23 µg/mL (≈ 0.633 µM)
[5]
  IC50: 0.14 µg/mL (≈ 0.385 µM)
  IC90: 0.41 µg/mL (≈ 1.13 µM)
[6]
  IC50: 0.39 µg/mL (≈ 1.07 µM)
  IC90: 0.8 µg/mL (≈ 2.2 µM)
A549 (human lung cancer)
  IC50: 0.83 µg/mL (≈ 2.28 µM)
  IC90: 3.13 µg/mL (≈ 8.61 µM)
[7]
  IC50: 0.76 µg/mL (≈ 2.09 µM)
  IC90: 1.77 µg/mL (≈ 4.87 µM)
[8]
  IC50: 1.4 µg/mL (≈ 3.85 µM)
  IC90: 3 µg/mL (≈ 8.26 µM)
[9]; CaES-17, vs tanshinone I
  improvement of anti-CaES-17 activity as compared with tanshinone I: more than 7 fold
[9]
  IC50: 0.45 µg/mL (≈ 1.24 µM)
  IC90: 0.91 µg/mL (≈ 2.5 µM)
[10]
  IC50: 0.67 µg/mL (≈ 1.84 µM)
  IC90: 1.8 µg/mL (≈ 4.95 µM)
[11]
  IC50: 0.56 µg/mL (≈ 1.54 µM)
  IC90: 1.82 µg/mL (≈ 5.01 µM)
[12]
  IC50: 0.87 µg/mL (≈ 2.39 µM)
  IC90: 2.79 µg/mL (≈ 7.68 µM)
MG63 (osteosarcoma)
  IC50: 0.78 µg/mL (≈ 2.15 µM)
  IC90: 1.76 µg/mL (≈ 4.84 µM)
[13]
  IC50: 0.37 µg/mL (≈ 1.02 µM)
  IC90: 2.94 µg/mL (≈ 8.09 µM)
[14]
  IC50: 0.27 µg/mL (≈ 0.743 µM)
  IC90: 2.6 µg/mL (≈ 7.15 µM)
[14]; PANC-1, vs tanshinone I
  improvement of anti-PANC-1 activity as compared with tanshinone I: more than 10 fold
PC-3 (prostate cancer)
  IC50: 0.63 µg/mL (≈ 1.73 µM)
  IC90: 2 µg/mL (≈ 5.5 µM)
[15]
  IC50: 0.125 µg/mL (≈ 0.344 µM)
  IC90: 1.3 µg/mL (≈ 3.58 µM)
[16]
  IC50: 1.44 µg/mL (≈ 3.96 µM)
  IC90: 1.97 µg/mL (≈ 5.42 µM)
[17]
  IC50: 0.76 µg/mL (≈ 2.09 µM)
  IC90: 1.82 µg/mL (≈ 5.01 µM)

## Cc1c(C[N+](C)(CCO)Cc2ccc(F)c(Cl)c2)oc2c1C(=O)C(=O)c1c-2ccc2c(C)cccc12 (centres unmarked) [BS-TA-60]
[1]
  IC50: 1.4 µg/mL
  IC90: 4 µg/mL
[2]
  IC50: 1.28 µg/mL
  IC90: 3.99 µg/mL
[3]
  IC50: 1.36 µg/mL
  IC90: 5.12 µg/mL
[4]
  IC50: 1.61 µg/mL
  IC90: 3.86 µg/mL
[5]
  IC50: 0.9 µg/mL
  IC90: 2.98 µg/mL
[6]
  IC50: 2 µg/mL
  IC90: 7.64 µg/mL
A549 (human lung cancer)
  IC50: 3.78 µg/mL
  IC90: 9.78 µg/mL
[7]
  IC50: 1.88 µg/mL
  IC90: 3.67 µg/mL
[8]
  IC50: 3.2 µg/mL
  IC90: 7.2 µg/mL
[9]
  IC50: 3.58 µg/mL
  IC90: 7.74 µg/mL
[10]
  IC50: 3.32 µg/mL
  IC90: 7.35 µg/mL
[11]
  IC50: 2.5 µg/mL
  IC90: 5.97 µg/mL
[12]
  IC50: 1.79 µg/mL
  IC90: 7.41 µg/mL
MG63 (osteosarcoma)
  IC50: 1.24 µg/mL
  IC90: 5.23 µg/mL
[13]
  IC50: 2.9 µg/mL
  IC90: 5.4 µg/mL
[14]
  IC50: 1.74 µg/mL
  IC90: 3.58 µg/mL
PC-3 (prostate cancer)
  IC50: 5.03 µg/mL
  IC90: 10.8 µg/mL
[15]
  IC50: 0.52 µg/mL
  IC90: 1.88 µg/mL
[16]
  IC50: 9.78 µg/mL
  IC90: 22.7 µg/mL
[17]
  IC50: 0.36 µg/mL
  IC90: 18.8 µg/mL
